Assay results reported in publication PMC10439230 (Scientific Reports, 2023).

How the values were obtained:
[1] = tested on: MRC-5 normal embryonic lung fibroblast cell line; assay: Cytotoxic activity assay (MTT), normal cells; type: cell-based; details: Homo sapiens, MRC5, 48 h exposure, read-out: Cell lines, IC50 (μM) MRC-5
Text: (§1) The synthetic compounds were screened for their cytotoxic activity using standard MTT or XTT methods[30] against a panel of nine human cancer cell lines and one normal cell line, including MDA-MB-231 (triple-negative breast cancer), T-47D (hormone-dependent breast cancer), HepG2 (hepatocellular carcinoma), A549 (lung adenocarcinoma), H69AR (multidrug-resistant small cell lung carcinoma), HuCCA-1 (cholangiocarcinoma derived from a patient), HeLa (cervical carcinoma), and two leukemia cell lines, HL-60 (acute promyelocytic leukemia) and MOLT-3 (T cell acute lymphoblastic leukemia). MRC-5 normal embryonic lung fibroblast cell line was used to represent normal cells. Chemotherapeutic drugs, doxorubicin and etoposide, were used as positive controls.
(§2) The cells were seeded into 96-well plates (100 µL for adherent cells and 75 µL for suspended cells) at a density of 5000–20,000 cells per well, depending on their growth rates. Adherent and suspended cells were then allowed to grow at 37 °C with 95% humidity and 5% CO2 for 24 h and 30 min, respectively. The cytotoxicity assay was initiated by adding an equal volume of cell culture medium containing tested compound at predetermined concentrations. Following 48 h of exposure, cell viability was determined using MTT assay for adherent cells[51],[52]or XTT assay for suspeended cells. Briefly, for adherent cells, 100 µL of the MTT reagent was added to each well, and the microtiter plates were further incubated for 2.5–4 h. The medium was subsequently replaced with 100 µL of DMSO to dissolve the purple formazan before the absorbance at 550 nm was measured using a microplate reader (a SpectraMax Plus 384) with a reference wavelength of 650 nm. For suspended cells, 75 µL of the XTT reagent was added to each well, and the cells were further incubated for 4 h. Afterwards, the absorbance of orange formazan at 492 nm was measured with a reference wavelength of 690 nm using a microplate reader.

[2] = tested on: MOLT-3 (T cell acute lymphoblastic leukemia); assay: Cytotoxic activity assay (XTT); type: cell-based, human; details: for IC50: Homo sapiens, MOLT-3, 48 h exposure, XTT, read-out: Cell lines, IC50 (μM) MOLT-3; for Selectivity Index (SI) values MOLT-3: SI = IC50 normal cell (MRC-5)/ IC50 cancer cell
Text: as §1, §2

[3] = tested on: HL-60 (acute promyelocytic leukemia); assay: Cytotoxic activity assay (XTT); type: cell-based, human; details: for IC50: Homo sapiens, HL-60, 48 h exposure, XTT, read-out: Cell lines, IC50 (μM) HL-60; for Selectivity Index (SI) values HL-60: SI = IC50 normal cell (MRC-5)/ IC50 cancer cell
Text: as §1, §2

[4] = tested on: A549 (lung adenocarcinoma); assay: Cytotoxic activity assay (MTT); type: cell-based, human; details: for IC50: Homo sapiens, A549, 48 h exposure, MTT, read-out: Cell lines, IC50 (μM) A549; for Selectivity Index (SI) values A549: SI = IC50 normal cell (MRC-5)/ IC50 cancer cell
Text: as §1, §2

[5] = tested on: H69AR (multidrug-resistant small cell lung carcinoma); assay: Cytotoxic activity assay (MTT); type: cell-based, human; details: for IC50: Homo sapiens, H69AR, 48 h exposure, MTT, read-out: Cell lines, IC50 (μM) H69AR; for Selectivity Index (SI) values H69AR: SI = IC50 normal cell (MRC-5)/ IC50 cancer cell
Text: as §1, §2

[6] = tested on: HepG2 (hepatocellular carcinoma); assay: Cytotoxic activity assay (MTT); type: cell-based, human; details: for IC50: Homo sapiens, HepG2, 48 h exposure, MTT, read-out: Cell lines, IC50 (μM) HepG2; for Selectivity Index (SI) values HepG2: SI = IC50 normal cell (MRC-5)/ IC50 cancer cell
Text: as §1, §2

[7] = tested on: MDA-MB-231 (triple-negative breast cancer); assay: Cytotoxic activity assay (MTT); type: cell-based, human; details: for IC50: Homo sapiens, MDA-MB-231, 48 h exposure, MTT, read-out: Cell lines, IC50 (μM) MDA-MB-231; for Selectivity Index (SI) values MDA-MB-231: SI = IC50 normal cell (MRC-5)/ IC50 cancer cell
Text: as §1, §2

[8] = tested on: T-47D (hormone-dependent breast cancer); assay: Cytotoxic activity assay (MTT); type: cell-based, human; details: for IC50: Homo sapiens, T47D, 48 h exposure, MTT, read-out: Cell lines, IC50 (μM) T47-D; for Selectivity Index (SI) values T47-D: SI = IC50 normal cell (MRC-5)/ IC50 cancer cell
Text: as §1, §2

[9] = tested on: HeLa (cervical carcinoma); assay: Cytotoxic activity assay (MTT); type: cell-based, human; details: for IC50: Homo sapiens, 48 h exposure, MTT, read-out: Cell lines, IC50 (μM) HeLa; for Selectivity Index (SI) values HeLa: SI = IC50 normal cell (MRC-5)/ IC50 cancer cell
Text: as §1, §2

[10] = tested on: HuCCA-1 (cholangiocarcinoma derived from a patient); assay: Cytotoxic activity assay (MTT); type: cell-based, human; details: for IC50: Homo sapiens, HuCC-A1, 48 h exposure, MTT, read-out: Cell lines, IC50 (μM) HuCCA-1; for Selectivity Index (SI) values HuCCA-1: SI = IC50 normal cell (MRC-5)/ IC50 cancer cell
Text: as §1, §2

SMILES | IC50 [1] | IC50 [2] | Selectivity Index (SI) values MOLT-3 [2] | IC50 [3] | Selectivity Index (SI) values HL-60 [3] | IC50 [4] | Selectivity Index (SI) values A549 [4] | IC50 [5] | Selectivity Index (SI) values H69AR [5] | IC50 [6] | Selectivity Index (SI) values HepG2 [6] | IC50 [7] | Selectivity Index (SI) values MDA-MB-231 [7] | IC50 [8] | Selectivity Index (SI) values T47-D [8] | IC50 [9] | Selectivity Index (SI) values HeLa [9] | IC50 [10] | Selectivity Index (SI) values HuCCA-1 [10]
C=C1CCC2C(C)(C)CCCC2(C)C1CCC(C)=CC(=O)O (centres unmarked) [Compound 1, anticopalic acid] | > 120 µM | 66.02 ± 0.12 µM | 2.5 | 103 ± 10.7 µM | 1.6 | 159.1 ± 0.78 µM | 1.0 | > 120 µM | 1.0 | > 120 µM | 1.0 | > 120 µM | 1.0 | > 120 µM | 1.0 | 145.2 ± 0.31 µM | 1.1 | 157.1 ± 0.51 µM | 1.0
C=C1CCC2C(C)(C)CCCC2(C)C1CCC(C)=CCO (centres unmarked) [Compound 2, anticopalol] | 54.15 ± 0.31 µM | 32.2 ± 1.44 µM | 1.7 | 27.7 ± 0.31 µM | 2.0 | 60.52 ± 0.22 µM | 0.9 | 111.9 ± 0.71 µM | 0.5 | 52.33 ± 0.34 µM | 1.0 | 31.77 ± 0.13 µM | 1.7 | 52.33 ± 0.34 µM | 1.0 | 37.49 ± 0.04 µM | 1.4 | 51.5 ± 0.24 µM | 1.1
C=C1CCC2C(C)(C)CCC[C@]2(C)[C@H]1CC/C(C)=C/C=O (stereo partly drawn) [Compound 3, (E)-3-methyl-5-((1S,8aS)-5,5,8a-trimethyl-2-methylenedecahydronaphthalen-1-yl)pent-2-enal] | 125.8 ± 0.46 µM | 37.7 ± 3.2 µM | 3.3 | 56.4 ± 1.37 µM | 2.2 | 142 ± 2.69 µM | 0.9 | > 120 µM | 0.7 | 122.2 ± 1.03 µM | 1.0 | 64.1 ± 1.8 µM | 2.0 | 93.9 ± 1.54 µM | 1.3 | 77.4 ± 1.47 µM | 1.6 | 131.4 ± 1.14 µM | 1.0
C=C1CC[C@H]2C(C)(C)CCC[C@]2(C)[C@H]1CC/C(C)=C/C(=O)NC [Compound 4a, (E)-N,3-Dimethyl-5-((1S,4aS,8aS)-5,5,8a-trimethyl-2-methylenedecahydro-naphthalen-1-yl)pent-2-enamide] | 55.9 ± 0.19 µM | 25.5 ± 0.7 µM | 2.2 | 24.7 ± 1.41 µM | 2.3 | 65.1 ± 3.57 µM | 0.9 | 122 ± 3.48 µM | 0.5 | 73.4 ± 2.06 µM | 0.8 | 29.9 ± 0.71 µM | 1.9 | 73.4 ± 2.06 µM | 0.8 | 47.7 ± 1.08 µM | 1.2 | 62.9 ± 1.36 µM | 0.9
C=CCNC(=O)/C=C(\C)CC[C@H]1C(=C)CC[C@H]2C(C)(C)CCC[C@]12C [Compound 4b, (E)-N-Allyl-3-methyl-5-((1S,4aS,8aS)-5,5,8a-trimethyl-2-methylenedeca-hydronaphthalen-1-yl)pent-2-enamide] | > 120 µM | 25.4 ± 0.51 µM | 5.7 | 22.7 ± 0.84 µM | 6.4 | > 120 µM | 1.0 | > 120 µM | 1.0 | 107 ± 1.28 µM | 1.4 | 114.3 ± 0.72 µM | 1.3 | > 120 µM | 1.0 | 79.61 ± 0.49 µM | 1.8 | > 120 µM | 1.0
C=C1CC[C@H]2C(C)(C)CCC[C@]2(C)[C@H]1CC/C(C)=C/C(=O)NCC(=O)O [Compound 4s, ((E)-3-methyl-5-((1S,4aS,8aS)-5,5,8a-trimethyl-2-methylenedecahydro-naphthalen-1-yl)pent-2-enoyl)glycine] | > 120 µM | 84.14 ± 0.09 µM | 1.6 | 75.1 ± 3.24 µM | 1.8 | > 120 µM | 1.0 | > 120 µM | 1.0 |  |  | > 120 µM | 1.0 | > 120 µM | 1.0 | > 120 µM | 1.0 | > 120 µM | 1.0
COc1cccc2c1C(=O)c1c(O)c3c(c(O)c1C2=O)C[C@@](O)(C(=O)CO)C[C@@H]3O[C@H]1C[C@H](N)[C@H](O)[C@H](C)O1 [DOX, doxorubicin, reference compound] | 0.76 ± 0.05 µM |  |  |  |  | 0.38 ± 0.03 µM | 2.0 | 38.08 ± 0.29 µM |  | 0.4 ± 0.02 µM | 1.9 | 2.7 ± 0.16 µM | 0.3 | 0.47 ± 0.03 µM | 1.6 | 0.48 ± 0.01 µM | 1.6 | 0.78 ± 0.06 µM | 1.0
COc1cc([C@@H]2c3cc4c(cc3[C@@H](O[C@@H]3O[C@@H]5CO[C@@H](C)O[C@H]5[C@H](O)[C@H]3O)[C@H]3COC(=O)[C@H]23)OCO4)cc(OC)c1O [ETO, etoposide, reference compound] |  | 0.07 ± 0.12 µM |  | 1.21 ± 0.15 µM |  |  |  |  |  |  |  |  |  |  |  |  |  |  | 
